We go through 22 compounds from patent publication US6800656B2, “Tricyclic compounds and method of treating herpes virus” (Warner Lambert Company, priority 2000, dated 2004).

Bounds are passed on as bounds.

Data set [1] has as its system herpes simplex virus 1 (HSV). Put plainly: microbe, parasite or virus in culture. Conditions: for EC50: Human alphaherpesvirus 1, Vero; for TI (EC50/TC50): therapeutic index, HSV-1, Vero cells. It is filed as cell-based. The protocol:
Vero (African Green Monkey kidney) cells are infected at a multiplicity of infection of 0.01 with the virus, and serial dilutions of the compound in dimethyl sulfoxide (DMSO) are added. The final concentration of DMSO in all wells is 1%. DMSO is added to control wells. The infection is allowed to proceed for 2 days at which time the β-gal activity in cell lysates is measured. Activity in wells containing compound is compared to control wells and percent inhibition determined.

The nature of data set [2]: in vitro. It is filed as cell-based. Conditions: for CC50: African green monkey; for CC50 at 7 days: human. The protocol:
Anti-human cytomegalovirus (HCMV) activity is determined in a yield reduction assay utilizing a recombinant HCMV (RC256) that produces β-gal (Spaete, R. R.; Mocarski, E. S. Proceedings of the National Academy of Sciences USA 84:7213-7217, 1987). Primary human diploid fibroblasts (HFF cells) are infected at an moi of 0.01 with RC256, and serial dilutions of the compound in DMSO are added. The final concentration of DMSO in all wells is 1%. The infection is allowed to proceed for 7 days at which time the β-gal activity in cell lysates is measured. Activity in wells containing compound is compared to control wells and percent inhibition determined.
Cellular toxicity assays: Cellular toxicity is measured in HFF cells. Cells are plated in 96 well plates at 1×10^4 cells/well. Serial dilutions of compounds are added to the wells in DMSO, with the final concentration of DMSO in all wells at 1%, in a total volume of 200 μL. The plates are maintained in a 37° C. incubator for 7 days. 50 μL of a solution of XTT (sodium-3′[1-(phenyl-amino-carbonyl)-3,-tetrazolium]-bis(bis(4-methoxy-6-nitro)-benzene sulfonic acid hydrate) (3×10^−4 mg/ml) is added to each well, and the plates returned to the incubator for 4 hours, after which the A450 (absorbance at wavelength of 450 nm) for each well is measured in a plate reader. (Roehm, N. W., et al J. Immunol. Meth. 142:257-265, 1991). Toxicity is determined by comparison of the OD (optical density) of a well containing compound to the OD of wells containing DMSO only.

Data set [3] relates to human cytomegalovirus (HCMV). Nature of the data set: microbe, parasite or virus in culture. The class given is cell-based. To be noted: Human betaherpesvirus 5, HFF. How it is done:
Primary human diploid fibroblasts (HFF cells) are infected at an moi of 0.01 with RC256, and serial dilutions of the compound in DMSO are added. The final concentration of DMSO in all wells is 1%. The infection is allowed to proceed for 7 days at which time the β-gal activity in cell lysates is measured. Activity in wells containing compound is compared to control wells and percent inhibition determined.

The melting point is the temperature of the solid-liquid transition. Turning to `c1ccc(Oc2ccc(CNc3ccc4oc5ccccc5c4c3)cc2)cc1`, the melting point lay within 91 to 93 °C.
On the same count and under the same terms, the same measure for `c1ccc2c(c1)CN(c1ccc3oc4ccccc4c3c1)C2`: 193 to 195 °C.
Still for that read-out and setting: the same measure for `O=C1c2ccccc2C(=O)N1c1ccc2oc3ccccc3c2c1`: 217 to 218 °C; for `FC(F)(F)Oc1ccc(CNc2ccc3oc4ccccc4c3c2)cc1`: 75 to 77 °C.
Same read-out and setting: the same measure for `Oc1ccccc1CNc1ccc2oc3ccccc3c2c1`: 145 to 147 °C; for `c1ccc(Oc2cccc(CNc3ccc4oc5ccccc5c4c3)c2)cc1`: 93 to 94 °C; for `CC(Nc1ccc2oc3ccccc3c2c1)c1ccccc1` (stereo not drawn): 94 to 95 °C.
In the case of `c1ccc2c(c1)oc1ccc(NCc3ccc4c(c3)OCO4)cc12`, the melting point is 85 to 86 °C.
The same measure, in the same setting: the result for `Cc1ccccc1CNc1ccc2oc3ccccc3c2c1` reads 84 to 85 °C; that for `c1ccc2c(c1)oc1ccc(NCc3ccsc3)cc12`, 62 to 63 °C; that for `c1ccc(CNc2ccc3oc4ccccc4c3c2)cc1`, 81 to 82 °C.
The EC50 is the midpoint of the concentration-response curve. The term CC50 denotes the concentration at which the toxic effect on the cells reaches its halfway point. `COc1cc(CNc2ccc3oc4ccccc4c3c2)cc(OC)c1` [Example 56, Dibenzofuran-2-yl-(3,5-dimethoxy-benzyl)-amine] gave a melting point of 87 to 88 °C. Also, in data set [1], the response was half-maximal at 700 nM (EC50) and the “TI (EC50/TC50)” value is reported as over 143. This compound also had a CC50 in data set [2] of over 100000 nM.
Take `FC(F)(F)c1ccc(CNc2ccc3oc4ccccc4c3c2)cc1` [Example 57, Dibenzofuran-2-yl-(4-trifluoromethyl-benzyl)-amine]: the melting point lay within 89 to 90 °C. For the same compound, in data set [1], a half-maximal effect (EC50) was put at 810 nM and the “TI (EC50/TC50)” value is recorded as over 124. In data set [2], this compound yielded a CC50 of over 100000 nM and a 50% cytotoxic concentration (CC50) at 7 days of over 100000 nM. The compound further displayed an EC50 in data set [3] of 1700 nM.
As to `O=[N+]([O-])c1ccc(CNc2ccc3oc4ccccc4c3c2)cc1` [Example 60, Dibenzofuran-2-yl-(4-nitro-benzyl)-amine], in data set [1], the EC50 is 500 nM and the “TI (EC50/TC50)” value is recorded as over 200. In data set [2], the CC50 was over 100000 nM and the CC50 at 7 days was over 100000 nM. This compound also registered an EC50 in data set [3] of 1300 nM.
The compound `CSc1ccc(CNc2ccc3oc4ccccc4c3c2)cc1` [Example 61, Dibenzofuran-2-yl-(4-methylsulfanyl-benzyl)-amine] gave a melting point of 103 to 104 °C. Besides, the cytotoxic concentration (CC50) at 7 days in data set [2] was over 100000 nM. This compound registered an EC50 in data set [3] of 2900 nM.
With `CCCC(Cc1ccccc1)Nc1ccc2oc3ccccc3c2c1` (stereo not drawn) [Example 65, (1-Benzyl-butyl)-dibenzofuran-2-yl-amine], in data set [2], the cytotoxic concentration (CC50) at 7 days was over 100000 nM. In data set [3], a half-maximal response (EC50) required 3000 nM.
As for `c1cnc2c(c1)Oc1cc(NCc3cccc4ccccc34)ccc1S2` [Example 93, Naphthalene-1-ylmethyl-(10-oxa-9-thia-1-aza-anthracen-6-yl)-amine], in data set [1], it took 1300 nM to reach a half-maximal effect (EC50) and the “TI (EC50/TC50)” value is recorded as over 77. Further, in data set [2], the CC50 is over 100000 nM.
The corresponding values for `COc1ccc(CNc2ccc3oc4ccc(Cl)cc4c3c2)cc1F` [Example 139, (8-Chloro-dibenzofuran-2-yl)-(3-fluoro-4-methoxy-benzyl)-amine] are 400 nM, over 250 and over 100000 nM.
The corresponding values for `COc1ccc(CNc2cccc3c2oc2ccccc23)cc1` [Example 150, Dibenzofuran-4-yl-(4-methoxy-benzyl)-amine] are 850 nM, over 118 and over 100000 nM.
Turning to `Fc1ccc(CNc2ccc3c(c2)Oc2ccccc2S3)c(F)c1` [Example 208, (2,4-Difluoro-benzyl)-phenoxathiin-3-yl-amine], in data set [1], the EC50 was determined as 260 nM and the “TI (EC50/TC50)” value is over 385. In data set [2], this compound gave a CC50 of over 100000 nM.
The corresponding values for `CCn1c2ccccc2c2cc(NCc3cccc(F)c3C)ccc21` [Example 217, (9-Ethyl-9H-carbazol-3-yl)-(3-fluoro-2-methyl-benzyl)-amine] are 320 nM, over 313 and over 100000 nM.
As to `Nc1nc(O)c2ncn(COC(CO)CO)c2n1` [Ganciclovir], the CC50 at 7 days in data set [2] is over 100000 nM. Further, the response in data set [3] was half-maximal at 2600 nM (EC50).
